Numbers after ± are expanded uncertainties.
Experiment: mn = molality of the nth substance listed, in mol/kg
Conditions: Liquid; for viscosity: Falling or rolling sphere viscometry; for mass density: Vibrating tube method

O=S1(=O)CCCC1 [sulfolane] + O=C=O
Conditions | mass density [kg/m3] | viscosity [mPa·s]
303.15 K, 118.4 kPa, m2 = 0.103 | 1260 ± 1 | 9.99 ± 0.26
303.15 K, 191.2 kPa, m2 = 0.174 | 1259 ± 1 | 9.8 ± 0.26
303.15 K, 316.5 kPa, m2 = 0.284 | 1258 ± 1 | 9.36 ± 0.25
303.15 K, 495.3 kPa, m2 = 0.438 | 1256 ± 1 | 8.97 ± 0.24
303.15 K, 648.5 kPa, m2 = 0.598 | 1255 ± 1 | 8.34 ± 0.23
303.15 K, 777.7 kPa, m2 = 0.709 | 1254 ± 1 | 7.85 ± 0.23
303.15 K, 1063.8 kPa, m2 = 1.001 | 1253 ± 1 | 7 ± 0.21
303.15 K, 1253.8 kPa, m2 = 1.205 | 1252 ± 1 | 6.48 ± 0.2
303.15 K, 1447.1 kPa, m2 = 1.423 | 1252 ± 1 | 5.96 ± 0.19
313.15 K, 121.8 kPa, m2 = 0.0954 | 1252 ± 1 | 7.98 ± 0.2
313.15 K, 200.8 kPa, m2 = 0.1579 | 1250 ± 1 | 7.73 ± 0.2
313.15 K, 324.9 kPa, m2 = 0.2571 | 1249 ± 1 | 7.61 ± 0.19
313.15 K, 526 kPa, m2 = 0.4296 | 1247 ± 1 | 7.13 ± 0.18
313.15 K, 732.9 kPa, m2 = 0.5763 | 1246 ± 1 | 6.88 ± 0.18
313.15 K, 855.1 kPa, m2 = 0.6803 | 1245 ± 1 | 6.36 ± 0.17
313.15 K, 1169.6 kPa, m2 = 0.9594 | 1243 ± 1 | 5.81 ± 0.16
313.15 K, 1383.5 kPa, m2 = 1.159 | 1243 ± 1 | 5.28 ± 0.15
313.15 K, 1644.1 kPa, m2 = 1.385 | 1242 ± 1 | 4.99 ± 0.14
323.15 K, 141.1 kPa, m2 = 0.093 | 1242 ± 1 | 6.21 ± 0.16
323.15 K, 238.4 kPa, m2 = 0.163 | 1241 ± 1 | 6.1 ± 0.16
323.15 K, 392.8 kPa, m2 = 0.266 | 1239 ± 1 | 5.97 ± 0.15
323.15 K, 632 kPa, m2 = 0.417 | 1237 ± 1 | 5.69 ± 0.14
323.15 K, 817.7 kPa, m2 = 0.557 | 1235 ± 1 | 5.46 ± 0.14
323.15 K, 993.9 kPa, m2 = 0.692 | 1234 ± 1 | 5.16 ± 0.13
323.15 K, 1413.4 kPa, m2 = 1.019 | 1232 ± 1 | 4.68 ± 0.12
323.15 K, 1706.6 kPa, m2 = 1.217 | 1231 ± 1 | 4.28 ± 0.11
323.15 K, 2006.9 kPa, m2 = 1.472 | 1231 ± 1 | 3.98 ± 0.1
333.15 K, 153.2 kPa, m2 = 0.091 | 1233 ± 1 | 5.14 ± 0.13
333.15 K, 263.6 kPa, m2 = 0.158 | 1232 ± 1 | 5.09 ± 0.13
333.15 K, 436.2 kPa, m2 = 0.257 | 1229 ± 1 | 4.92 ± 0.13
333.15 K, 694.6 kPa, m2 = 0.415 | 1226 ± 1 | 4.5 ± 0.12
333.15 K, 896.4 kPa, m2 = 0.54 | 1224 ± 1 | 4.4 ± 0.11
333.15 K, 1035.8 kPa, m2 = 0.626 | 1223 ± 1 | 4.27 ± 0.11
333.15 K, 1456.6 kPa, m2 = 0.886 | 1220 ± 1 | 3.87 ± 0.1
333.15 K, 1761.6 kPa, m2 = 1.061 | 1218 ± 1 | 3.69 ± 0.1
343.15 K, 168.2 kPa, m2 = 0.087 | 1223 ± 1 | 4.19 ± 0.11
343.15 K, 296.7 kPa, m2 = 0.155 | 1222 ± 1 | 4.06 ± 0.11
343.15 K, 477.6 kPa, m2 = 0.249 | 1219 ± 1 | 4 ± 0.11
343.15 K, 758.5 kPa, m2 = 0.402 | 1216 ± 1 | 3.61 ± 0.1
343.15 K, 978.6 kPa, m2 = 0.526 | 1213 ± 1 | 3.63 ± 0.1
343.15 K, 1118.9 kPa, m2 = 0.603 | 1211 ± 1 | 3.46 ± 0.09
343.15 K, 1538.6 kPa, m2 = 0.853 | 1207 ± 1 | 3.24 ± 0.08
343.15 K, 1852.6 kPa, m2 = 1.011 | 1205 ± 1 | 3.02 ± 0.07
343.15 K, 2326.1 kPa, m2 = 1.305 | 1203 ± 1 | 2.92 ± 0.07
353.15 K, 178.9 kPa, m2 = 0.08 | 1215 ± 1 | 3.5 ± 0.09
353.15 K, 305 kPa, m2 = 0.137 | 1212 ± 1 | 3.27 ± 0.09
353.15 K, 509.4 kPa, m2 = 0.232 | 1209 ± 1 | 3.14 ± 0.08
353.15 K, 828 kPa, m2 = 0.38 | 1205 ± 1 | 3.16 ± 0.08
353.15 K, 1248.9 kPa, m2 = 0.581 | 1199 ± 1 | 3 ± 0.07
353.15 K, 1720.3 kPa, m2 = 0.822 | 1194 ± 1 | 2.78 ± 0.06
353.15 K, 1911.1 kPa, m2 = 0.924 | 1192 ± 1 | 2.62 ± 0.06
363.15 K, 188.8 kPa, m2 = 0.076 | 1205 ± 1 | 2.84 ± 0.07
363.15 K, 327.8 kPa, m2 = 0.133 | 1203 ± 1 | 2.74 ± 0.07
363.15 K, 555 kPa, m2 = 0.225 | 1199 ± 1 | 2.64 ± 0.07
363.15 K, 902.8 kPa, m2 = 0.366 | 1194 ± 1 | 2.49 ± 0.06
363.15 K, 1404.2 kPa, m2 = 0.573 | 1189 ± 1 | 2.39 ± 0.06
363.15 K, 2015 kPa, m2 = 0.822 | 1185 ± 1 | 2.24 ± 0.05
